Laboratory results from patent publication US4499099A, “Nortropane and granatane type compounds useful in treating psychosis” (Beecham Group p.l.c., priority 1981, dated 1985).
Counter-ions that a name gives are not always drawn.

System: post-synaptic Dopamine (D.A.) receptors
Assay: Inhibition of Apomorphine Induced Climbing in the Mouse
Format: in vivo
Settings: male CD1 mice, apomorphine 1 mg/kg s.c., test compound administered subcutaneously 30 minutes prior to apomorphine (b213 says pre-treated orally), climbing scored at 10 and 20 minutes, read-out: ED50 (dose that produced a 50% inhibition of apomorphine-induced climbing)
Method: The results in the following table are on illustration of the anti-psychotic activity of the present compounds as shown by Inhibition of Apomorphine Induced Climbing in the Mouse, a standard test.
The test is based on that described by Protais, P., Constantin, J. and Schwartz J. C. (1976), Psychopharmacology, 50, 1-6.
When mice are given a dose of 1 mg/kg apomorphine and then placed in an enclosed environment, such as an inverted wire cage, they are seen to climb around the walls. This behavioural phenomenon is thought to be a consequence of the stimulation of post-synaptic Dopamine (D.A.) receptors in the nucleus accumbens. Inhibition of apomorphine induced climbing is therefore indicative of post-synaptic D.A. receptor blockade in the accumbens.
Groups of 10 male CD1 mice, weighing 25-30 g were pre-treated orally with either graded doses of the test compound or vehicle, at appropriate time intervals before the subcutaneous administration of a sub-maximal dose of apomorphine (1 mg/kg). Immediately after the apomorphine injection the mice were placed in wire `climbing cages` and each animal was scored for climbing behaviour at 10 and 20 minutes post apomorphine as follows:
Four paws on cage floor=0
The test compound was administered subcutaneously 30 minutes prior to administration of apomorphine.
The total score was calculated for each group of mice and expressed as a percentage inhibition of climbing. [formula]
ED50's and fiducial limits were calculated according to the method of Litchfield and Wilcoxon, the ED50 being the dose that produced a 50% inhibition of apomorphine--induced climbing.

Structure (SMILES)	ED50 [mg/kg]
COc1cc(N)c(SC)cc1C(=O)N[C@@H]1C[C@H]2CC[C@@H](C1)N2Cc1ccccc1 [Example 1, 4-Amino-2-methoxy-5-methylthio-N-[3-β-(8-benzyl-8-azabicyclo(3,2,1)octyl)]benzamide]	0.66
COc1cc(SC)cc(C(=O)N[C@@H]2C[C@H]3CC[C@@H](C2)N3Cc2ccccc2)c1OC [Example 3, 2,3-Dimethoxy-5-methylthio-N[3β(8-benzyl-8-azabicyclo[3.2.1]octyl)]benzamide hydrochloride]	0.44
COc1cc(N)c(SC)cc1C(=O)N[C@@H]1C[C@H]2CCC[C@@H](C1)N2Cc1ccc(F)cc1 [Example 2, 4-Amino-2-methoxy-5-methylthio-[N-(9-(4^1-fluorobenzyl)-9-azabicyclo(3.3.1)non-3β-yl)]benzamide]	0.32
COc1cc(SC)cc(C(=O)N[C@@H]2C[C@H]3CCC[C@@H](C2)N3Cc2ccc(F)cc2)c1OC [Example 4, 2,3-dimethoxy-5-methylthio-[N-(9-(4^1-fluorobenzyl)-9-azabicyclo(3.3.1)non-3β-yl)]benzamide]	0.56
